Laboratory results published in publication PMC10537604, “Development and Assessment of 1,5–Diarylpyrazole/Oxime Hybrids Targeting EGFR and JNK–2 as Antiproliferative Agents: A Comprehensive Study through Synthesis, Molecular Docking, and Evaluation” (Molecules, 2023).
Like-named read-outs stand apart in the source and are kept apart here.

Key:
EGFR tyrosine kinase = target: EGFR tyrosine kinase; parameters: method as in doi:10.21608/jabps.2021.77469.1129, PMID 24731281; settings: literature values ref [4],[29]; read-out: EGFR tyrosine kinase inhibitory activity IC50; cited from earlier work
[1] = system: human colorectal adenocarcinoma cell line DLD-1; assay: WST-8 antiproliferative assay, DLD-1; format: cell-based; settings: WST-8 assay, six concentrations 1-100 µM
[2] = system: human colorectal adenocarcinoma cell line DLD-1; assay: WST-8 antiproliferative assay, DLD-1; format: cell-based
Procedure: (§1) Compounds 7a–j, 8a–j, 9a–c, and 10a–c were evaluated for in vitro anticancer activities against five different cancer cell lines, namely, human colorectal adenocarcinoma cell lines DLD-1, human cervical cancer cell line Hela, human pancreatic cancer cell line SUIT-2, human myelogenous leukemia cell line K562, and human hepatocellular carcinoma cell line HepG2 using WST-8 assay at concentrations of 100 µM to investigate the growth inhibition percent (GI%) of each compound using daunorubicin as a reference drug. […]. […] So, as a conclusion on the SAR study of those compounds as antiproliferative agents, the oxime moiety potentiated the anticancer activity and electron donating groups on R1 and R2 played an important role on this activity. Moreover, the sulfamoyl moiety on R3 seems to play a potential role in the activity of the prepared compounds (Table 1).
(§2) All selected compounds and daunorubicin were recorded as the minimum concentration required to inhibit half cell growth (IC50) and the results are listed in Table 2.
(§3) Evaluation of anticancer activity was performed according to the standard water-soluble tetrazolium-8 (WST-8) assay at the Faculty of Engineering, Yamagata University, Yonezawa, Japan, using an MTP-310 absorbance microplate reader. The EGFR inhibitory assay was carried out at the Faculty of Engineering, Yamagata University, Yonezawa, Japan, according to the protocol enzyme linked immunosorbent assay (ELISA) kits (Douset sandwich ELISA test, recombinant mouse EGFR). The JNK-2 inhibitory assay was performed at the Faculty of Engineering, Yamagata University, Yonezawa, Japan, according to the protocol of enzyme-linked immunosorbent assay (ELISA), the assay was carried out using the JNK-2 kit (Simple Step ELISA, pT183/Y185, Abcam Company, Cambridge, CB2 0AX, UK). Apoptosis and cell cycle analysis was performed at Faculty of medicine, Yamagata University, Yamagata, Japan, using BD FACS melody. Molecular docking was performed at the Nano Medical Engineering Laboratory, RIKEN Cluster for Pioneering Researchers, RIEKN, Japan, using ICM-Pro 3.8 software (MolSoft L.L.C., San Diego, CA, USA).
(§4) According to the standard water-soluble tetrazolium-8 (WST-8) assay, the current synthesized compounds have been tested for their anticancer activities against different five cancer cell lines; DLD-1, Hela, K562, SUIT-2, and HepG2 and daunorubicin was used as reference drug by the WST-8 assay. The five cells were maintained in a suspension culture, (Dulbecco’s modified eagle medium (DMEM) for SUIT-2, Hela, and HepG2 or PRIM for K562 and DLD), supplemented with 5% FBS (Fetal Bovine Serum) containing 1% of a penicillin-streptomycin (1:1) mixture. A 100 μL aliquot of cells (10,000 cells/mL) was added to a 96 well plate and incubated for 24 h at 37 °C in a humidified incubator containing 5% CO2 in the air. After 24 h, a 10 μL aliquot of test compound (concentrations varying in the range of 10–150 µM) was added to each of the 96 wells and incubated for 24 h. Then A 10 μL WST-8 solution (mixture of WST-8 and 1-methoxy PMS) was added to each well and the incubation continued for 3 h. The visible absorbance at 450 nm and 630 nm as the reference wavelength of each well was quantified using an MTP-310 absorbance microplate reader. Daunorubicin was used as a positive control. The results of cytotoxicity were recorded as growth inhibition percentages and as IC50 values.

[3] = system: human cervical cancer cell line Hela; assay: WST-8 antiproliferative assay, Hela; format: cell-based; settings: for inhibition at 100 µM: read-out: Growth Inhibition (GI%) Hela; for IC50: read-out: IC50 Hela
Procedure: as §1, §2, §3
as §4, with “After 24 h, a 10 μL aliquot of test compound (concentrations varying in the range of 10–150 µM) was added to each of the 96 wells and incubated for 24 h.” left out

[4] = system: human myelogenous leukemia cell line K562; assay: WST-8 antiproliferative assay, K562; format: cell-based
Procedure: as §1, §2, §3
as §4, with “After 24 h, a 10 μL aliquot of test compound (concentrations varying in the range of 10–150 µM) was added to each of the 96 wells and incubated for 24 h.” left out

[5] = system: human pancreatic cancer cell line SUIT-2; assay: WST-8 antiproliferative assay, SUIT-2; format: cell-based
Procedure: as §1, §2, §3, §4

[6] = system: human pancreatic cancer cell line SUIT-2; assay: WST-8 antiproliferative assay, SUIT-2; format: cell-based; settings: WST-8 assay, six concentrations 1-100 µM
[7] = system: human hepatocellular carcinoma cell line HepG2; assay: WST-8 antiproliferative assay, HepG2; format: cell-based
Procedure: as §1, §2, §3, §4

[8] = system: PC12 (rat adrenal-derived pheochromocytoma cells); assay: WST-8 cytotoxicity towards normal cell line PC12; format: cell-based; settings: Rattus norvegicus, PC-12, read-out: percentage growth inhibition PC12
Procedure: The evaluation of normal cell viability is fundamental in analyzing the efficacy of target compounds and is often used in conjunction with cytotoxicity tests to help understand how target compound toxicity affects normal cell health. […] A 100 μL aliquot of cells (10,000 cells/mL) was added to a 96 well plate and incubated for 24 h at 37 °C in a humidified incubator containing 5% CO2 in the air. […] Then, a 10 μL WST-8 solution (mixture of WST-8 and 1-methoxy PMS) was added to each well and the incubation continued for 3 h. The visible absorbance at 450 nm and 630 nm as the reference wavelength of each well was quantified using an MTP-310 absorbance microplate reader. Daunorubicin was used as a positive control. The results of cytotoxicity were recorded as growth inhibition percentages and as IC50 values.

[9] = system: human hepatocellular carcinoma cell line HepG2; assay: WST-8 antiproliferative assay, HepG2; format: cell-based; settings: WST-8 assay, six concentrations 1-100 µM
[10] = DLD-1, 100 µM, WST-8 assay, read-out: Growth Inhibition (GI%) DLD-1
[11] = WST-8 assay, six concentrations 1-100 µM
[12] = Homo sapiens, K562, 100 µM, WST-8 assay, read-out: Growth Inhibition (GI%) K562
[13] = SUIT-2, 100 µM, WST-8 assay, read-out: Growth Inhibition (GI%) SUIT-2
[14] = HepG2, 100 µM, WST-8 assay, read-out: Growth Inhibition (GI%) HepG2

Row | Compound | IC50 (EGFR tyrosine kinase) [µM] | IC50 [1] [µM] | inhibition at 100 µM [2, 10] [%] | inhibition at 100 µM ([3]; 100 µM, WST-8 assay) [%] | IC50 [3, 11] [µM] | inhibition at 100 µM [4, 12] [%] | inhibition at 100 µM [5, 13] [%] | IC50 [6] [µM] | inhibition at 100 µM [7, 14] [%] | melting point [°C] | further results
1 | COc1ccc(-c2cc(-c3ccc(C)c(C)c3)nn2C(N)=S)cc1 [Compound I] | 0.07 |  |  |  |  |  |  |  |  |  | 
2 | COc1cc(C(C)=O)ccc1OC(=O)c1cc(-c2ccc(Cl)cc2)n(-c2ccccc2)n1 [Compound 7d, 4–Acetyl–2–methoxyphenyl–5–(4–chlorophenyl) 1–phenyl–1H–pyrazole–3–carboxylate] |  | 81 | 72 | 104 | 15 | 50 | 104 | 43 | 31 | 85 to 87 | 
3 | Cc1ccc(-c2cc(-c3ccc4ccccc4c3)n(C3=NC(=O)CS3)n2)cc1C [II] | 0.06 |  |  |  |  |  |  |  |  |  | 
4 | COc1cccc2c1C(=O)c1c(O)c3c(c(O)c1C2=O)C[C@@](O)(C(C)=O)C[C@@H]3O[C@H]1C[C@H](N)[C@H](O)[C@H](C)O1 [Daunorubicin, daunorubicin, reference compound] |  |  |  |  |  |  |  |  |  |  | inhibition at 100 µM ([2]; DLD-1, read-out: Growth Inhibition (GI%) DLD-1): 82.5%; IC50 ([2]; DLD-1, read-out: IC50 DLD-1): 30 µM; inhibition at 1 µM [8]: 81%; inhibition at 50 µM [8]: 107%; inhibition at 100 µM [8]: 113%; inhibition at 100 µM [3]: 100%; IC50 [3]: 0.097 µM; inhibition at 100 µM ([4]; Homo sapiens, K562, read-out: Growth Inhibition (GI%) K562): 100%; IC50 ([4]; Homo sapiens, K562, read-out: IC50 K562, WST-8 assay, six concentrations 1-100 µM): 13 µM; IC50 ([4]; read-out: IC50 K562, WST-8 assay, six concentrations 1-100 µM): 13.3 µM; inhibition at 100 µM ([5]; SUIT-2, read-out: Growth Inhibition (GI%) SUIT-2): 92%; IC50 ([5]; SUIT-2, read-out: IC50 SUIT-2): 9 µM; inhibition at 100 µM ([7]; HepG2, read-out: Growth Inhibition (GI%) HepG2): 100%; IC50 ([7]; HepG2, read-out: IC50 HepG2): 22 µM
5 | COc1cc(C(C)=O)ccc1OC(=O)c1cc(-c2ccc(C)cc2)n(-c2ccccc2)n1 [Compound 7b, 4–Acetyl–2–methoxyphenyl–1–phenyl 5–p–tolyl–1H–pyrazole–3–carboxylate] |  | 13 | 81 | 83 | 55 | 70 | 103 | 45 | 85 | 110 to 112 | IC50 [9]: 45 µM
